Converted amounts (≈) assume the structure as drawn. Like-named read-outs stand apart in the source and are kept apart here.
Columns and labels:
Trypanosoma brucei = conditions: read-out: Anti-trypanosomal IC50; cited from earlier work
[1] = tested on: different human cancer cells; conditions: cited from earlier work
[2] = tested on: Trypanosoma brucei brucei (Tbb, strain 427) bloodstream form; assay: Anti-trypanosomal assay (alamar blue, 72 h) on Tbb bloodstream form; assay type: cell-based; conditions: for IC50: Trypanosoma brucei, Tbb bloodstream form
Description: Trypanosoma brucei brucei, although not infecting humans because of its susceptibility to the innate immune system, has been used as a good predictive model in a first screening for the identification of anti-trypanosomal compounds [52, 53]. Bloodstream forms of this parasite (Tbb, strain 427) were grown in HMI-9 medium (IMDM-Gibco-Thermo Fisher Scientific, Merelbeke, Belgium-supplemented with 10% heat-inactivated fetal bovine serum (Sigma-Aldrich, Bornem, Belgium) and bloodstream form supporting factors).
The assay was performed in 96-well plates as previously described. The primary screening was repeated two times in triplicate at the concentrations of 50 nL/mL and 25 nL/mL (for 33 EOs) or 10 nL/mL and 5 nL/mL (for 4 EOs). Fifty µL of parasite culture (5 x 10^4 parasites/mL) was added with 50 µL of diluted EOs in each well. Ten µL of alamar blue (diluted with PBS at the ratio 1:1) was added to each well after 72 h of incubation and the plates were further incubated for 4 h. The fluorescence of the reduced reagent was measured on a spectrophotometer at 530 nm excitation and 590 nm emission wavelengths. Suramin was used as positive control. The EOs that inhibited more than 50% of the parasite growth at 25 or 10 nL/mL were analyzed for IC50 determination. Samples were tested in eight serial three-fold dilutions ranging from 50–0.02 nL/mL, except Cinnamomum cassia EO, Curcuma zedoaria EO, and Zingiber zerumbet EO (ranging from 10–0.005 nL/mL) and Dysphania ambrosioides EO (ranging from 5–0.002 nL/mL) in duplicate. IC50 values were calculated from dose response growth inhibition curves using Microsoft Excel files and mean IC50 values were obtained from at least three repetitions.

[3] = Cytotoxicity assay (MTT) on J774; assay type: cell-based, murine; conditions: mouse
Description: (§1) The human non-cancer fibroblast cell line WI38 (ATCC Number CCL-75 – Standards, UK) and macrophage-like murine cell line J774 (ECACC Number 91051511 – Public Health England, UK) were grown in DMEM and RPMI medium (Gibco-Thermo Fisher Scientific, Merelbeke, Belgium or Sigma-Aldrich, Bornem, Belgium), respectively, supplemented with 10% fetal bovine serum and penicillin-streptomycin (100 UI/mL) (Sigma-Aldrich, Bornem, Belgium).
(§2) The cytotoxicity assays were performed as described previously with concentrations ranging from 50 to 1.40 nL/mL (dilution of 1.67). The selectivity index (SI) values were calculated using the formula:SI = IC50 on mammalian cells/IC50 on protozoan parasites

[4] = Cytotoxicity assay (MTT) on WI38; assay type: cell-based; conditions: human
Description: as §1, §2

Tbb bloodstream form = conditions: cited from earlier work
[5] = tested on: CHO, WI38, Balb/3T3 fibroblast, and J774; parameters: method as in PMID 24269775, PMID 27529211, PMID 16557466; conditions: cited from earlier work
[6] = in Curcuma longa, pure compounds of C. longa EO, read-out: Anti-Trypanosomal Activity (IC50)
[7] = J774 macrophage-like murine cells, pure compounds of C. longa EO, read-out: Cytotoxicity (IC50) J774
[8] = WI38 human non-cancer fibroblast cells, pure compounds of C. longa EO, read-out: Cytotoxicity (IC50) WI38
[9] = highest tested concentration 50 µg/mL

In the case of `COc1cc(/C=C/C(=O)CC(=O)/C=C/c2ccc(O)c(OC)c2)ccc1O` [curcumin], the IC50 (Trypanosoma brucei) is listed as roughly 5 µM.

In the case of `CC(C)=CC(=O)CC(C)c1ccc(C)cc1` (stereo not drawn) [ar-Turmerone], the “Apoptotic effects (release of mitochondrial cytochrome c, activation of capase-3)” value ([1]; at 40, 80, and 120 µg/mL) is given as “apoptotic effects”, the IC50 [2, 6] is given as 28.8 ± 3.93 µg/mL and the IC50 [3] is given as 44.6 ± 1.41 µg/mL (≈ 206 µM). It also gave an IC50 [4] of 43.4 ± 3.89 µg/mL (≈ 201 µM).

`CC(C)=CCCC(C)c1ccc(C)cc1` (stereo not drawn) [ar-Curcumene] showed an IC50 [2, 6] of 13.4 ± 2.46 µg/mL, an IC50 [3, 7] of 24 ± 2.64 µg/mL (≈ 119 µM) and an IC50 [4, 8] of 23.1 ± 1.36 µg/mL (≈ 114 µM).

For `CC(C)=C1C/C=C(\C)CC/C=C(\C)CC1=O` [Germacrone], the “Anti-trypanosomal IC50” value (Tbb bloodstream form; Tbb bloodstream form, ref 32) is listed as greater than 100 µg/mL.

In the case of `C=C1C=CC(C(C)CC(=O)C=C(C)C)CC1` (stereo not drawn) [Curlone], the IC50 [2, 6] is reported as 1.38 ± 0.52 µg/mL, the IC50 ([2]; read-out: Anti-trypanosomal IC50) is reported as 6.32 µM and the “SI compared to cytotoxicity” value ([2]; compared to cytotoxicity on mammalian cells (WI38 and J774)) is reported as greater than 10. The IC50 [3, 7] was 25.1 ± 3.47 µg/mL (≈ 115 µM) and the IC50 [4, 8] was 43.6 ± 2.45 µg/mL (≈ 200 µM).

In the case of `CC12CCC(CC1)C(C)(C)O2` [eucalyptol], the “Anti-trypanosomal IC50” value (Tbb bloodstream form; Tbb) is given as 83.15 µg/mL.

For `CC(C)=CCCC(C)CCO` (stereo not drawn) [citronellol], the “Anti-trypanosomal IC50” value (Tbb bloodstream form; Tbb bloodstream form, ref 28) is given as 6.45 ± 4.86 µg/mL and the “Cytotoxicity at the highest tested concentration” value [5, 9] is given as “did not show any cytotoxicity”.

For `CC(C)=CCC[C@@H](C)CC=O` [citronellal], the “Anti-trypanosomal IC50” value (Tbb bloodstream form; Tbb bloodstream form, ref 28) is given as 2.76 ± 1.55 µg/mL and the “Cytotoxicity at the highest tested concentration” value [5, 9] is given as “did not show any cytotoxicity”.

In the case of `C=C(C)[C@H]1CC=C(C)CC1` [limonene], the “Anti-trypanosomal IC50” value (Tbb bloodstream form; Tbb bloodstream form, ref 28) is given as 4.24 ± 1.27 µg/mL and the “Anti-trypanosomal IC50” value (Tbb bloodstream form; Tbb bloodstream form, ref 29) is given as 5.6 ± 1.6 µg/mL.

For `O=C(/C=C/c1ccc(O)cc1)CC(=O)/C=C/c1ccc(O)cc1` [bisdemethoxycurcumin], the IC50 (Trypanosoma brucei) is listed as 9.84 ± 0.84 µM.

In the case of `COc1cc(/C=C/C(O)=C/C(=O)/C=C/c2ccc(O)cc2)ccc1O` [demethoxycurcumin], the IC50 (Trypanosoma brucei) is given as 7.19 ± 1.02 µM.

For `Cc1ccc(C(=O)Nc2ccc(S(=O)(=O)O)c3cc(S(=O)(=O)O)cc(S(=O)(=O)O)c23)cc1NC(=O)c1cccc(NC(=O)Nc2cccc(C(=O)Nc3cc(C(=O)Nc4ccc(S(=O)(=O)O)c5cc(S(=O)(=O)O)cc(S(=O)(=O)O)c45)ccc3C)c2)c1` [Suramin, reference compound], the IC50 ([2]; positive control, read-out: Anti-Trypanosomal Activity (IC50)) was 0.0215 ± 0.00262 µg/mL.

For `C=CC(C)(O)CCC=C(C)C` (stereo not drawn) [linalool], the “Anti-trypanosomal IC50” value (Tbb bloodstream form; Tbb bloodstream form, ref 30) is given as 2.5 µg/mL and the “Cytotoxicity at the highest tested concentration” value ([5]; highest tested concentration 100 µg/mL) is given as “did not show any cytotoxicity”.

For `C=C1C2CCC(C2)C1(C)C` (stereo not drawn) [camphene], the “Anti-trypanosomal IC50” value (Tbb bloodstream form; Tbb bloodstream form, ref 41) is listed as 80.66 ± 0.87 µg/mL.

In the case of `C=C1C=CC(C(C)CCC=C(C)C)CC1` (stereo not drawn) [β-Sesquiphellandrene], the “Apoptotic effects (release of mitochondrial cytochrome c, activation of capase-3)” value ([1]; at 5.10 µg/mL) is listed as “apoptotic effects”, the IC50 [2, 6] is listed as 9.89 ± 1.18 µg/mL and the IC50 [3, 7] is listed as 21 ± 2.72 µg/mL (≈ 103 µM). It also gave an IC50 [4, 8] of 19.1 ± 1.58 µg/mL (≈ 93.5 µM).

For `CC[C@@]1(O)C(=O)OCc2c1cc1n(c2=O)Cc2cc3ccccc3nc2-1` [Camptothecin, reference compound], the IC50 ([3]; J774 macrophage-like murine cells, positive control, read-out: Cytotoxicity (IC50) J774) was 0.00732 ± 0.00129 µg/mL (≈ 0.021 µM) and the IC50 ([4]; WI38 human non-cancer fibroblast cells, positive control, read-out: Cytotoxicity (IC50) WI38) was 0.035 ± 0.00963 µg/mL (≈ 0.1 µM).

Source: article PMC6471621, “Evaluation of the Anti-Trypanosomal Activity of Vietnamese Essential Oils, with Emphasis on Curcuma longa L. and Its Components” (Molecules, 2019)
